Test results reported in article PMC12199414, “A Self‐Assembling LYTAC Mediates CTGF Degradation and Remodels Inflammatory Tumor Microenvironment for Triple‐Negative Breast Cancer Therapy” (Advanced Science, 2025).

Legend:
CTGF = target: T1, CTGF (Homo sapiens, UniProt P29279); test: ELISA of extracellular CTGF in culture media of TNBC cells; format: cell-based; details: in vitro, BT549 and MDA-MB-231 culture media, 12 h
T1 construct: endogenous in cells; host or cells: BT549 and MDA-MB-231 (human TNBC cell lines)
T1 sequence (P29279 27-349): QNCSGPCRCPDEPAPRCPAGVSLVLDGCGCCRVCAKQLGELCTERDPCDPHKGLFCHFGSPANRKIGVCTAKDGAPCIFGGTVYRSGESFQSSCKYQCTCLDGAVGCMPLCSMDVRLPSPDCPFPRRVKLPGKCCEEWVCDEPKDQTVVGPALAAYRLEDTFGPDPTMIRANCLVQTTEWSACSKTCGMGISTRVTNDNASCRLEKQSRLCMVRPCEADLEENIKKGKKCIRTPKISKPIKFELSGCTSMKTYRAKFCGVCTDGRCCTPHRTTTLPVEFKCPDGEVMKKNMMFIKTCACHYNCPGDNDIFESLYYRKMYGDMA
Description: BT549 and MDA‐MB‐231 cells were treated with various concentrations of CL8‐M6P3 or NanoCLY for 12 h. Extracellular CTGF protein level in conditioned media was quantified by a human CTGF ELISA kit following the manufacturer's instructions (ab261851, Abcam and CSB‐E07875h, Cusabio). Extracellular CCN1, CCN3, and CCN4 protein levels were quantified using respective ELISA kits (HY‐P7842, HY‐P701327, HY‐P78051, MCE) following the manufacturer's instructions (CSB‐EL015956HU, CSB‐EL026119HU, CSB‐E13884h, Cusabio). Additionally, BSP and β‐CTx levels in serum were quantified by ELISA kit following the manufacturer's instructions (BPE10823, BPE10438, lengton).

MDA‐MB‐231‐Luc cells = test: Lung metastasis model; format: in vivo, BALB/c nude mice; details: 10 mg kg^−1 i.v. every 2 days, 12 times, bioluminescence day 12, 18, 24, n = 3
Description: Exponentially grown 5 × 10^5 MDA‐MB‐231‐Luc cells were suspended in 100 µL of PBS and intravenously injected into female nude BALB/c mice. The mice were randomly divided into […] (n = 3) and treated with PBS, 10 mg kg^−1 NanoCLY via intravenous injection every 2 days for 12 times in total. The growth of lung metastatic tumors was monitored by VISQUE In Vivo Elite after intraperitoneal injection of 20 mg kg^−1 D‐luciferin on day 12, day 18, and day 24. At the end of monitoring on day 24, the lungs were photographed and fixed, and H&E staining. Metastatic areas on the lung surface were quantified by ImageJ software.

C12-CPSAAHYL-PEG3-[Pra(M6P)βAla]3-NH2 [NanoCLY, CL8-M6P3 joined to a lauryl chain via disulfide; self-assembling GSH-responsive LYTAC nanoparticle]
extracellular CTGF degraded (CTGF): ≈ 50% | lung colonization by MDA-MB-231 cells (MDA‐MB‐231‐Luc cells): significantly reduced lung colonization
